Here are results for 33 molecules from US9150577B2, “Heterocyclic compounds containing an indole core” (Boehringer Ingelheim International GmbH, priority 2009, dated 2015).

For this test, the target named is Human RSK2 (Homo sapiens (Human), UniProt P51812). In words: Human RSK2 assay (Kinase Glo Plus, residual ATP).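 Also: recombinant human RSK2 phosphorylating a substrate peptide, 90 min at 28 °C, leftover ATP read by luminescence, RLU scaled between no-kinase background and uninhibited kinase controls, 4-parameter fit.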 It counts as biochemical.
Human RSK2, sequence (P51812 whole entry): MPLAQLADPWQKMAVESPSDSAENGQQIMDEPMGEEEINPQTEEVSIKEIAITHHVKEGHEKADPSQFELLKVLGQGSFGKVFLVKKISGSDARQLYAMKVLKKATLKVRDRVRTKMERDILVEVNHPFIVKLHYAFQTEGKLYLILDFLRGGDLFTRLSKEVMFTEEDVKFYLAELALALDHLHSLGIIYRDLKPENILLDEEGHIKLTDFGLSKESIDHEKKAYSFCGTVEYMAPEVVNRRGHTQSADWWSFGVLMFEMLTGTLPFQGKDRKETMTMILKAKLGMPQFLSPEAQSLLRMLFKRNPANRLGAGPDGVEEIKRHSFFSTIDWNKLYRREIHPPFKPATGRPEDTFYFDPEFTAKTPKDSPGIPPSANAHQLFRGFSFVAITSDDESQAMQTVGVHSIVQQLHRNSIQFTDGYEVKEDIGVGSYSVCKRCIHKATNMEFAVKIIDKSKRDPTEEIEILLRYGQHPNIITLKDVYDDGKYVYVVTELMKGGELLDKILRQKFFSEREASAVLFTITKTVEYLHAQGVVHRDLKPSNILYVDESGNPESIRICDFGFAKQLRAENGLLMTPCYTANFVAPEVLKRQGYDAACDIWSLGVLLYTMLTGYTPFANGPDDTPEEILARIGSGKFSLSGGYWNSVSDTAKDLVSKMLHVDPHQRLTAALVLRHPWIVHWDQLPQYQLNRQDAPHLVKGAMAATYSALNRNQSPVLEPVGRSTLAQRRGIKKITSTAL
In the case of `C[C@H]1CNC(=O)c2cc3ccc(C(=O)Nc4nc5ccccc5n4CCCN(C)C)cc3n21` [Example 131, (4S)-N-{1-[3-(dimethylamino)propyl]-1H-benzimidazol-2-yl}-4-methyl-1-oxo-1,2,3,4-tetrahydropyrazino[1,2-a]indole-7-carboxamide], the IC50 was found to be 0.015 µM.

As for `Cc1cc(NC(=O)c2ccc3cc4n(c3c2)C(C)CCNC4=O)no1` (stereo not drawn) [Example 159, 5-methyl-N-(5-methyl-1,2-oxazol-3-yl)-1-oxo-2,3,4,5-tetrahydro-1H-[1,4]diazepino[1,2-a]indole-8-carboxamide], the IC50 is 0.012 µM.

`CN(C)CCCn1c(NC(=O)c2ccc3cc4n(c3c2)CC2(CC2)CNC4=O)nc2ccccc21` [Example 124, N-{1-[3-(dimethylamino)propyl]-1H-benzimidazol-2-yl}-1′-oxo-2′,3′-dihydro-1′H-spiro[cyclopropane-1,4′-[1,4]diazepino[1,2-a]indole]-8′-carboxamide]: the IC50 is 0.00925 µM.

In the case of `O=C(Nc1cccnc1)c1ccc2cc3n(c2c1)CC1(CCC1)CNC3=O` [Example 153, 1′-oxo-N-(pyridin-3-yl)-2′,3′-dihydro-1′H-spiro[cyclobutane-1,4′-[1,4]diazepino[1,2-a]indole]-8′-carboxamide], the IC50 came out at 3.3 µM.

Take `COCCn1cc(NC(=O)c2ccc3cc4n(c3c2)CCCNC4=O)cn1` [Example 38, N-[1-(2-methoxyethyl)-1H-pyrazol-4-yl]-1-oxo-2,3,4,5-tetrahydro-1H-[1,4]diazepino[1,2-a]indole-8-carboxamide]: the IC50 came to 0.019 µM.

As for `CC(=O)N1CCC(n2c(NC(=O)c3ccc4cc5n(c4c3)CCCNC5=O)nc3ccccc32)CC1` [Example 78, N-[1-(1-acetylpiperidin-4-yl)-1H-benzimidazol-2-yl]-1-oxo-2,3,4,5-tetrahydro-1H-[1,4]diazepino[1,2-a]indole-8-carboxamide], the IC50 turned out to be 0.058 µM.

With `Cn1ccc(NC(=O)c2ccc3cc4n(c3c2)CCCNC4=O)n1` [Example 11, N-(1-methyl-1H-pyrazol-3-yl)-1-oxo-2,3,4,5-tetrahydro-1H-[1,4]diazepino[1,2-a]indole-8-carboxamide], the IC50 stood at 0.54 µM.

Turning to `CC1(C)CNC(=O)c2cc3ccc(C(=O)Nc4cnn(Cc5ccccc5)c4)cc3n2C1` [Example 122, N-(1-benzyl-1H-pyrazol-4-yl)-4,4-dimethyl-1-oxo-2,3,4,5-tetrahydro-1H-[1,4]diazepino[1,2-a]indole-8-carboxamide], the IC50 was 0.11 µM.

Regarding `Cc1cc(NC(=O)c2ccc3cc4n(c3c2)[C@H](C)[C@H](C)NC4=O)no1` [Example 171, (3S,4R)-3,4-dimethyl-N-(5-methyl-1,2-oxazol-3-yl)-1-oxo-1,2,3,4-tetrahydropyrazino[1,2-a]indole-7-carboxamide], the IC50 was found to be 0.004 µM.

For the molecule `Cc1cc(NC(=O)c2ccc3cc4n(c3c2)[C@@H](C)[C@@H](C)NC4=O)no1` [Example 172, (3R,4S)-3,4-dimethyl-N-(5-methyl-1,2-oxazol-3-yl)-1-oxo-1,2,3,4-tetrahydropyrazino[1,2-a]indole-7-carboxamide], the IC50 is 1.1 µM.

For the molecule `CS(=O)(=O)c1ccc2c(c1)nc(NC(=O)c1ccc3cc4n(c3c1)CCCNC4=O)n2CC(F)(F)F` [Example 118, N-[5-(methylsulfonyl)-1-(2,2,2-trifluoroethyl)-1H-benzimidazol-2-yl]-1-oxo-2,3,4,5-tetrahydro-1H-[1,4]diazepino[1,2-a]indole-8-carboxamide], the IC50 stood at 0.018 µM.

Turning to `CC(C)n1c(NC(=O)c2ccc3cc4n(c3c2)[C@@H](C)CNC4=O)nc2ccccc21` [Example 69, (4S)-4-methyl-1-oxo-N-[1-(propan-2-yl)-1H-benzimidazol-2-yl]-1,2,3,4-tetrahydropyrazino[1,2-a]indole-7-carboxamide], the half-inhibitory concentration (IC50) was 0.021 µM.

Consider `O=C(Nc1cccc(Cl)c1)c1ccc2cc3n(c2c1)CCCNC3=O` [Example 1, N-(3-chlorophenyl)-1-oxo-2,3,4,5-tetrahydro-1H-[1,4]diazepino[1,2-a]indole-8-carboxamide], for which the IC50 is 0.27 µM.

For the molecule `Cc1cc(NC(=O)c2ccc3cc4n(c3c2)[C@@H](C)CNC4=O)no1` [Example 132, (4S)-4-methyl-N-(5-methyl-1,2-oxazol-3-yl)-1-oxo-1,2,3,4-tetrahydropyrazino[1,2-a]indole-7-carboxamide], the IC50 was found to be 0.495 µM.

`CC1CNC(=O)c2cc3ccc(C(=O)Nc4nc5ccccc5n4C)cc3n2C1` (stereo not drawn) [Example 62, 4-methyl-N-(1-methyl-1H-benzimidazol-2-yl)-1-oxo-2,3,4,5-tetrahydro-1H-[1,4]diazepino[1,2-a]indole-8-carboxamide]: the IC50 turned out to be 0.0082 µM.

For `Cn1c(-c2ccccc2)cnc1NC(=O)c1ccc2cc3n(c2c1)CCCNC3=O` [Example 107, N-(1-methyl-5-phenyl-1H-imidazol-2-yl)-1-oxo-2,3,4,5-tetrahydro-1H-[1,4]diazepino[1,2-a]indole-8-carboxamide], the IC50 is 0.5 µM.

In the case of `O=C(Nc1cnn(C2CCOCC2)c1)c1ccc2cc3n(c2c1)CCCNC3=O` [Example 27, 1-oxo-N-[1-(tetrahydro-2H-pyran-4-yl)-1H-pyrazol-4-yl]-2,3,4,5-tetrahydro-1H-[1,4]diazepino[1,2-a]indole-8-carboxamide], the IC50 stood at 0.046 µM.

Take `O=C(Nc1nc2ccccc2[nH]1)c1ccc2cc3n(c2c1)CCCNC3=O` [Example 55, N-(1H-benzimidazol-2-yl)-1-oxo-2,3,4,5-tetrahydro-1H-[1,4]diazepino[1,2-a]indole-8-carboxamide]: the IC50 stood at 0.0044 µM.

On to `C[C@H]1CNC(=O)c2cc3ccc(C(=O)Nc4cnn(Cc5ccccc5)c4)cc3n2[C@H]1C` (relative stereo) [Example 136, N-(1-benzyl-1H-pyrazol-4-yl)-cis-4,5-dimethyl-1-oxo-2,3,4,5-tetrahydro-1H-[1,4]diazepino[1,2-a]indole-8-carboxamide], for which the IC50 was determined as 0.0093 µM.

Turning to `O=C(Nc1cc(Cc2ccccc2)on1)c1ccc2cc3n(c2c1)CCCNC3=O` [Example 212, N-(5-benzyl-1,2-oxazol-3-yl)-1-oxo-2,3,4,5-tetrahydro-1H-[1,4]diazepino[1,2-a]indole-8-carboxamide], the IC50 worked out at 0.03 µM.

`CCn1c(NC(=O)c2ccc3cc4n(c3c2)C(C)CNC4=O)nc2ccccc21` (stereo not drawn) [Example 83, N-(1-ethyl-1H-benzimidazol-2-yl)-4-methyl-1-oxo-1,2,3,4-tetrahydropyrazino[1,2-a]indole-7-carboxamide]: the IC50 turned out to be 0.00063 µM.

For `CN(C)CCCn1c(NC(=O)c2ccc3cc4n(c3c2)CC(C)(C)CNC4=O)nc2cc(Cl)ccc21` [Example 50, N-{5-chloro-1-[3-(dimethylamino)propyl]-1H-benzimidazol-2-yl}-4,4-dimethyl-1-oxo-2,3,4,5-tetrahydro-1H-[1,4]diazepino[1,2-a]indole-8-carboxamide], the IC50 amounted to 0.034 µM.

Turning to `CN(C)CCn1cc(NC(=O)c2ccc3cc4n(c3c2)CCCNC4=O)cn1` [Example 119, N-{1-[2-(dimethylamino)ethyl]-1H-pyrazol-4-yl}-1-oxo-2,3,4,5-tetrahydro-1H-[1,4]diazepino[1,2-a]indole-8-carboxamide], the IC50 is 0.12 µM.

`COc1cccc(NC(=O)c2ccc3cc4n(c3c2)CCCNC4=O)c1` [Example 148, N-(3-methoxyphenyl)-1-oxo-2,3,4,5-tetrahydro-1H-[1,4]diazepino[1,2-a]indole-8-carboxamide]: the IC50 amounted to 0.19 µM.

For the molecule `CC(C)(C)c1cc(NC(=O)c2ccc3cc4n(c3c2)CCCNC4=O)no1` [Example 175, N-(5-tert-butyl-1,2-oxazol-3-yl)-1-oxo-2,3,4,5-tetrahydro-1H-[1,4]diazepino[1,2-a]indole-8-carboxamide], the IC50 was found to be 0.15 µM.

In the case of `C[C@H]1CNC(=O)c2cc3ccc(C(=O)Nc4cnn(Cc5ccccc5)c4)cc3n21` [Example 133, (4S)-N-(1-benzyl-1H-pyrazol-4-yl)-4-methyl-1-oxo-1,2,3,4-tetrahydropyrazino[1,2-a]indole-7-carboxamide], the IC50 turned out to be 0.0175 µM.

Turning to `CC1(C)CNC(=O)c2cc3ccc(C(=O)Nc4cnn(Cc5ccccc5)c4)cc3n21` [Example 134, N-(1-benzyl-1H-pyrazol-4-yl)-4,4-dimethyl-1-oxo-1,2,3,4-tetrahydropyrazino[1,2-a]indole-7-carboxamide], the half-inhibitory concentration (IC50) worked out at 0.0018 µM.

For the molecule `Cc1cc(NC(=O)c2ccc3cc4n(c3c2)[C@@H](C)[C@H](C)CNC4=O)no1` (relative stereo) [Example 169, Trans-4,5-dimethyl-N-(5-methyl-1,2-oxazol-3-yl)-1-oxo-2,3,4,5-tetrahydro-1H-[1,4]diazepino[1,2-a]indole-8-carboxamide], the IC50 was determined as 0.57 µM.

Take `N#Cc1cccc(NC(=O)c2ccc3cc4n(c3c2)CCCNC4=O)c1` [Example 6, N-(3-cyanophenyl)-1-oxo-2,3,4,5-tetrahydro-1H-[1,4]diazepino[1,2-a]indole-8-carboxamide]: the IC50 was 0.14 µM.

Turning to `CC(C)(C)c1cc(NC(=O)c2ccc3cc4n(c3c2)CCCNC4=O)on1` [Example 195, N-(3-tert-butyl-1,2-oxazol-5-yl)-1-oxo-2,3,4,5-tetrahydro-1H-[1,4]diazepino[1,2-a]indole-8-carboxamide], the IC50 was found to be 0.044 µM.

As to `O=C(Nc1nc2ccccc2n1CCN1CCOCC1)c1ccc2cc3n(c2c1)CCCNC3=O` [Example 104, N-{1-[2-(morpholin-4-yl)ethyl]-1H-benzimidazol-2-yl}-1-oxo-2,3,4,5-tetrahydro-1H-[1,4]diazepino[1,2-a]indole-8-carboxamide], the IC50 came to 0.054 µM.

As for `C[C@@H]1CNC(=O)c2cc3ccc(C(=O)Nc4nc5ccccc5n4CCCN(C)C)cc3n21` [Example 129, (4R)-N-{1-[3-(dimethylamino)propyl]-1H-benzimidazol-2-yl}-4-methyl-1-oxo-1,2,3,4-tetrahydropyrazino[1,2-a]indole-7-carboxamide], the concentration for half-maximal inhibition (IC50) turned out to be 0.0007 µM.

As to `CC1CCNC(=O)c2cc3ccc(C(=O)Nc4ccccc4C(N)=O)cc3n21` (stereo not drawn) [Example 222, N-(2-carbamoylphenyl)-5-methyl-1-oxo-2,3,4,5-tetrahydro-1H-[1,4]diazepino[1,2-a]indole-8-carboxamide], the IC50 was 0.011 µM.
